These are literature values, as cited in patent US10695378B2, “Direct reprogramming of cells to cardiac myocyte fate” (Duke University, priority 2010, dated 2020).

Data set [1] deals with TGFβ-induced epithelial-to-mesenchymal transition.
The test system of the next data set is JAK1. The following applies: small molecule inhibitors of JAK-1.
Experiment in data set [2]: not given
This is another data set of the same source.

Experiment in data set [3]: not given
The source holds these as a separate data set.

Bounds are passed on as bounds.

Take `Cc1cccc(-c2nn(C(=S)Nc3ccccc3)cc2-c2ccnc3ccccc23)n1` [A83-01, 3-(6-Methyl-2-pyridinyl)-N-phenyl-4-(4-quinolinyl)-1H-pyrazole-1-carbothioamide]: the “phosphorylation of Smad2” value with Smad2 is listed as “blocks”. In addition, the TGFβ-induced epithelial-to-mesenchymal transition result in data set [1] is “inhibits”. As for `N#CC[C@H](C1CCCC1)n1cc(-c2ncnc3[nH]ccc23)cn1` [INCB018424], the “IC50 values (in words)” value in the data set with JAK1 is listed as “nanomolar range”.

Regarding `CC(C)(C)c1nc2c3ccc(F)cc3c3c(=O)[nH]ccc3c2[nH]1` [JAK inhibitor 1, 2-(1,1-Dimethylethyl)-9-fluoro-3,6-dihydro-7H-benz[h]-imidaz[4,5-f]isoquinolin-7-one], the “phosphorylation of STATS” value is recorded as “blocks”. For the same compound, the “IC50 values (in words)” value in the data set with JAK1 was “nanomolar range”. Regarding `O=C(O)C=C(CCc1ccc(Cl)cc1)c1ccccc1` [PS48, 5-(4-Chloro-phenyl)-3-phenyl-pent-2-enoic acid], the “soluble in DMSO” value in data set [2] was above 20 mg/mL. For `O=C(O)C(Cc1c[nH]c2ccccc12)N1C(=O)c2ccccc2C1=O` (stereo not shown) [RG108, 2-(1,3-Dioxo-1,3-dihydro-2H-isoindol-2-yl)-3-(1H-indol-3-yl)propionic acid], in the data set on human tumor cell line, the “doubling time in culture” value is “increases” and the “human tumor cell line proliferation” value is “inhibit”. `CCCC(CCC)C(=O)O` [Valproic acid, 2-propylpentanoic acid]: the therapeutic range in data set [3] (currently established therapeutic range) is 50 to 120 µg/mL. Further, in data set [3] (during controlled therapy), the “Serum or plasma valproic acid concentrations” value was 20 to 100 mg/L.
